Assay [1] has as its system live cells of P. mirabilis PCM 543. Briefly: Whole-cell ureolysis: ammonia release from urea in live cells. The format is cell-based, Proteus mirabilis. As to conditions: urea hydrolysis in live cells, 30 mM urea, 10 mM PBS, read-out: IC50 [μM] (± SD) P. mirabilis cells. As for the experimental part:
Proteus mirabilis PCM 543 was cultured as described for S. pasteurii except for nickel ions—0.3 mM NiCl2 was used in the growth medium. Cells harvested by centrifugation were resuspended in 10 mM PBS and used for urease activity measurements. Assays were conducted in 10 mM PBS containing 30 mM urea and different concentrations of urease inhibitors and ammonia quantified by indophenol assay.

In assay [2] the target is T1, native S. pasteurii CCM 2056 urease (Sporosarcina pasteurii, UniProt P41020).
T1 construct: The S. pasteurii CCM 2056 cells were used as the source of a native enzyme; endogenous in cells; host or cells: S. pasteurii CCM 2056 culture; endogenous enzyme purified in house from the sonicated cell extract by five-step chromatography
T1 sequence (P41022 whole entry): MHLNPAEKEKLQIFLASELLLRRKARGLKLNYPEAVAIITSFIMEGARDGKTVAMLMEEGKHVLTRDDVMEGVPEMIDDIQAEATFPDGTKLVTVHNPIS
T1 sequence (P41021 whole entry, further chain): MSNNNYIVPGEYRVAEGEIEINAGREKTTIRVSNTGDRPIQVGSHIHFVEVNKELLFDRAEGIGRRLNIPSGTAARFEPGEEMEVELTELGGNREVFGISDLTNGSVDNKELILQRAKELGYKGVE
T1 sequence (P41020 whole entry): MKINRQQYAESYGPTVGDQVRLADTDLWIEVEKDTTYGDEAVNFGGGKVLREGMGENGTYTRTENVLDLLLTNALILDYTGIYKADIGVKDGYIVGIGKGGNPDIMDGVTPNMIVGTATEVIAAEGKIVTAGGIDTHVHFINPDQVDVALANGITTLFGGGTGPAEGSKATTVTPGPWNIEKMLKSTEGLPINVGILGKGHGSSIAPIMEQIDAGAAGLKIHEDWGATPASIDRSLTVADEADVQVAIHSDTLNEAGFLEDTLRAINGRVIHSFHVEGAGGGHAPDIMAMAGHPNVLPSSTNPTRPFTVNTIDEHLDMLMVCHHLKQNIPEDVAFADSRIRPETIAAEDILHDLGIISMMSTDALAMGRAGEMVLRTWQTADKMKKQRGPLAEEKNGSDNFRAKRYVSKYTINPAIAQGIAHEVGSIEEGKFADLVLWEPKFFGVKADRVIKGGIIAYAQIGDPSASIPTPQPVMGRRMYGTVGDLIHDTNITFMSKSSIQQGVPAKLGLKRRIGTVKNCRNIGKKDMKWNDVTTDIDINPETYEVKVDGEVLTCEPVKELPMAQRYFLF
In words: Inhibition of purified native urease, indophenol (Berthelot) ammonia assay. The format is biochemical. To be noted: for Ki: purified native enzyme, EI dissociation constant from Lineweaver-Burke plots, urea up to 30 mM, 3 mM phosphate buffer, read-out: Ki [μM] (± SD). The method, then:
The kinetic properties of the compounds as potential urease inhibitors were evaluated against native enzyme purified from S. pasteurii CCM 2056 culture. Residual enzyme activity was expressed as ammonia release from urea followed quantitively using the Berthelot reaction. All of the studied structures were reversibly inhibitory, with dissociation constants ranging from submicromolar to moderate micromolar concentrations (Table 1). The α quantifier between the enzyme-substrate-inhibitor complex (ESI) dissociation constant Ki* and the EI dissociation constant Ki [drawing 1] was calculated to determine the influence of substrate binding on the stability of the EI complex. […] For modeled compounds 19, 16, and 29, the values of α were 152.01, 38.04, and 14.52, respectively. […] For comparison, the α value of compound 52 was 1.37.
The S. pasteurii CCM 2056 cells were used as the source of a native enzyme. The culture medium was made of 20 g/L yeast extract. One day after the inoculation, the medium was further supplemented with 1 mM NiCl2 and 1% urea. After 2 more days of growth, the cells were centrifuged and disintegrated via sonication. Enzyme purification from the cell extract was conducted using a five-step chromatographic method as previously reported.[50]
Inhibition of the purified urease was measured using the indophenol assay for ammonia concentration.[65] The kinetic assays in 3 mM phosphate buffer contained the purified enzyme, studied thiourea analogues, and a range of urea concentrations up to saturating 30 mM. Total progress curves were analyzed with the addition of the enzyme at the reaction start. Assays were terminated with the sequential addition of 100 μL of M1 ([…] sodium nitroprusside, 0.53 M phenol) and M2 (0.625 M sodium hydroxide, 47.1 mM sodium hypochlorite) solution to 50 μL of reaction mixture sample. After 15 min of color development, absorbance at 650 nm was measured. […] In order to verify the inhibition mode as well as calculate the dissociation constant for EI complex, Lineweaver–Burke curves were plotted (1/v = f(1/[S])). For noncompetitive or mixed inhibition mode, Ki was calculated from plots of the LB curves slope as a function of inhibitor concentration.

For assay [3], the system named is live cells of S. pasteurii CCM 2056. In words: Whole-cell ureolysis: ammonia release from urea in live cells. The format is cell-based, Sporosarcina pasteurii. To be noted: for IC50: Sporosarcina pasteurii, CCM2056, urea hydrolysis in live cells, 30 mM urea, 10 mM PBS, read-out: IC50 [μM] (± SD) S. pasteurii cells.
In assay [4] the target is purified enzyme from P. mirabilis. Also noted: method as in PMID 25699141. As to conditions: previously reported; read-out: Ki against purified enzyme from P. mirabilis; cited from earlier work.
The target of assay [5] is T1, native S. pasteurii CCM 2056 urease. Further details: method as in PMID 25699141. To be noted: previously reported; read-out: Ki against purified enzyme from S. pasteurii; cited from earlier work.
Assay [6] concerns live cells of P. mirabilis PCM 543. Further details: method as in PMID 27550502. As to conditions: 1 mM acetohydroxamate; remaining ureolysis in P. mirabilis PCM 543; cited from earlier work.

Where two headings read alike, the source gives them in different places.

The term IC50 denotes the concentration needed to halve the response being measured. For orientation: Ki means a dissociation constant, usually derived from enzyme kinetics or from competition with a known ligand. For the compound `Oc1ccc(-c2csc(NC(=S)NCc3ccccc3)n2)cc1` [Compound 52, 1-Benzyl-3-(4-(4-hydroxyphenyl)thiazol-2-yl)thiourea], the IC50 came out at 304 ± 14 µM in assay [1] (Proteus mirabilis), 304 ± 13.9 µM in assay [1] and 76.3 ± 4.5 µM in assay [3]. In assay [2] (purified S. pasteurii urease), the “type (mode) of inhibition” value was “noncompetitive inhibition”. The “α quantifier between ESI dissociation constant Ki* and EI dissociation constant Ki” value in assay [2] (purified S. pasteurii urease) came to 1.37. Moreover, the Ki in assay [2] is 2.76 µM. In assay [3] (52 versus 49), the “fold change of inhibitory activity (IC50) against S. pasteurii cells compared to nonhydroxylated analogue 49” value is “over 6 fold”.

On to `S=C(NCc1ccccc1)Nc1nc(-c2ccc(Br)cc2)cs1` [Compound 53, 1-Benzyl-3-(4-(4-bromophenyl)thiazol-2-yl)thiourea], for which the figures for the IC50 in assay [1] (Proteus mirabilis) and in assay [3] were 638 ± 48.2 µM and 416 ± 32.4 µM, respectively. The Ki in assay [2] worked out at 10.7 ± 0.79 µM.

As to `CC(=O)NO` [acetohydroxamate], the Ki in assay [4] was 5.7 ± 0.4 µM; in assay [5], 3.3 ± 0.4 µM. Further, the “whole-cell ureolysis reduced to” value in assay [6] was 42 ± 6%.

The record behind these values is paper PMC10413841, “Exploration of Thiourea-Based Scaffolds for the Construction of Bacterial Ureases Inhibitors” (ACS Omega, 2023).
